Laboratory results taken from US7534782B2, “Crystal of 1-methylcarbapenem solvate” (Sankyo Company, Limited, priority 2003, dated 2009).
Like-named read-outs stand apart in the source and are kept apart here.

Tests used:
[1] = tested on: Gram-negative bacterial strains and Gram-positive bacterial strains; settings: cited from earlier work
[2] = storage stability of the crystalline forms; assay type: physicochemical

## C[C@@H](O)[C@H]1C(=O)N2C(C(=O)O)=C(S[C@H]3C[C@@H](C(=O)N4CC[C@H](NC(=O)CNC(=N)N)C4)N(C)C3)[C@H](C)[C@H]12 [compound (I), (1R,5S,6S)-2-[(2S,4S)-2-[(3S)-3-(2-guanidinoacetylamino)pyrrolidin-1-ylcarbonyl]-1-methylpyrrolidin-4-ylthio]-6-[(1R)-1-hydroxyethyl]-1-methyl-1-carbapen-2-em-3-carboxylic acid]
[1]
  antibiotic activity: excellent antibiotic activity
[1]; listed as 1-methylcarbapenem compound of formula (I)
  antibiotic activity: potent antibiotic activity

## C[C@@H](O)[C@H]1C(=O)N2C(C(=O)O)=C(S[C@H]3C[C@@H](C(=O)N4CC[C@H](NC(=O)CNC(=N)N)C4)N(C)C3)[C@H](C)[C@H]12 [Crystalline form (I-1), (1R,5S,6S)-2-[(2S,4S)-2-[(3S)-3-(2-Guanidinoacetylamino)pyrrolidin-1-ylcarbonyl]-1-methylpyrrolidin-4-ylthio]-6-[(1R)-1-hydroxyethyl]-1-methyl-1-carbapen-2-em-3-carboxylic acid ethanolate]
[2]; dry conditions
  storage stability under dry conditions: improved storage stability

## C[C@@H](O)[C@H]1C(=O)N2C(C(=O)O)=C(S[C@H]3C[C@@H](C(=O)N4CC[C@H](NC(=O)CNC(=N)N)C4)N(C)C3)[C@H](C)[C@H]12 [Crystalline form (I-3), (1R,5S,6S)-2-[(2S,4S)-2-[(3S)-3-(2-Guanidinoacetylamino)pyrrolidin-1-ylcarbonyl]-1-methylpyrrolidin-4-ylthio]-6-[(1R)-1-hydroxyethyl]-1-methyl-1-carbapen-2-em-3-carboxylic acid ethanolate trihydrate]
[2]; trihydrate
  stability during storage under conditions of normal or high humidity: remains stable during storage

## C[C@@H](O)[C@H]1C(=O)N2C(C(=O)O)=C(S[C@H]3C[C@@H](C(=O)N4CC[C@H](NC(=O)CNC(=N)N)C4)N(C)C3)[C@H](C)[C@H]12 [Crystalline form (I-2), (1R,5S,6S)-2-[(2S,4S)-2-[(3S)-3-(2-Guanidinoacetylamino)pyrrolidin-1-ylcarbonyl]-1-methylpyrrolidin-4-ylthio]-6-[(1R)-1-hydroxyethyl]-1-methyl-1-carbapen-2-em-3-carboxylic acid tetrahydrate]
[2]
  stability during storage under conditions of normal or high humidity: stable during storage
